This passage reports remaining binding results from publication PMC9856672, “SGC-CAMKK2-1: A Chemical Probe for CAMKK2” (Cells, 2023).

The structures appear in SMILES notation.

For one assay, the target named is T1, CAMK1B (Homo sapiens, UniProt Q6P2M8).
T1 construct: purchased Eurofins DiscoverX KINOMEscan
Put plainly: KINOMEscan 1 μM, CAMK1B. Type of assay: binding. As to conditions: 1000 nM; Entrez PNCK; read-out: Percent Control. The text has this: (§1) Supplement cells-12-00287-s001.zip/File S2. KinomeScan data for the CAMKK2 probe and negative control.xlsx, sheet "SGC-CAMKK2-1" | column: Percent Control

Another assay deals with T2, ERK3 (Homo sapiens, UniProt Q16659).
T2 construct: purchased Eurofins DiscoverX KINOMEscan
In words: KINOMEscan 1 μM, ERK3. Type of assay: binding. As to conditions: 1000 nM; Entrez MAPK6; read-out: Percent Control.
From the text: as §1

A further assay deals with T3, p38-gamma (Homo sapiens, UniProt P53778).
T3 construct: purchased Eurofins DiscoverX KINOMEscan
In words: KINOMEscan 1 μM, p38-gamma. Type of assay: binding. The note with it: 1000 nM; Entrez MAPK12; read-out: Percent Control.
From the text: as §1

For assay [1], the target named is T4, FLT3(D835H) (Homo sapiens, UniProt P36888, D835H).
T4 construct: purchased Eurofins DiscoverX KINOMEscan
In words: KINOMEscan 1 μM, FLT3(D835H). Type of assay: binding. The note with it: 1000 nM; Entrez FLT3; read-out: Percent Control.
From the text: as §1

Another assay deals with T5, MET (Homo sapiens, UniProt P08581).
T5 construct: purchased Eurofins DiscoverX KINOMEscan
Put plainly: KINOMEscan 1 μM, MET. Type of assay: binding. As to conditions: 1000 nM; Entrez MET; read-out: Percent Control.
From the text: as §1

In another assay the target is T6, CAMK1D (Homo sapiens, UniProt Q8IU85).
T6 construct: purchased Eurofins DiscoverX KINOMEscan
Put plainly: KINOMEscan 1 μM, CAMK1D. As to conditions: 1000 nM; Entrez CAMK1D; read-out: Percent Control. Type of assay: binding.
From the text: as §1

The next assay has as its target T7, ASK2 (Homo sapiens, UniProt O95382).
T7 construct: purchased Eurofins DiscoverX KINOMEscan
In words: KINOMEscan 1 μM, ASK2. Type of assay: binding. As to conditions: 1000 nM; Entrez MAP3K6; read-out: Percent Control.
From the text: as §1

For the next assay, the target named is T8, ALK(C1156Y) (Homo sapiens, UniProt Q9UM73, C1156Y).
T8 construct: purchased Eurofins DiscoverX KINOMEscan
In words: KINOMEscan 1 μM, ALK(C1156Y). Type of assay: binding. The note with it: 1000 nM; Entrez ALK; read-out: Percent Control.
From the text: as §1

A further assay has as its target T9, ERK8 (Homo sapiens, UniProt Q8TD08).
T9 construct: purchased Eurofins DiscoverX KINOMEscan
In words: KINOMEscan 1 μM, ERK8. As to conditions: 1000 nM; Entrez MAPK15; read-out: Percent Control. Type of assay: binding.
From the text: as §1

The target in a further assay is T10, KIT(D816V) (Homo sapiens, UniProt P10721, D816V).
T10 construct: purchased Eurofins DiscoverX KINOMEscan
In words: KINOMEscan 1 μM, KIT(D816V). Type of assay: binding. The note with it: 1000 nM; Entrez KIT; read-out: Percent Control.
From the text: as §1

The next assay concerns the target T11, NEK9 (Homo sapiens, UniProt Q8TD19).
T11 construct: purchased Eurofins DiscoverX KINOMEscan
Put plainly: KINOMEscan 1 μM, NEK9. The note with it: 1000 nM; Entrez NEK9; read-out: Percent Control. Type of assay: binding.
From the text: as §1

For another assay, the target named is T12, PFTK1 (Homo sapiens, UniProt O94921).
T12 construct: purchased Eurofins DiscoverX KINOMEscan
In words: DiscoverX KINOMEscan binding assay at 1 μM, PFTK1. The note with it: PFTK1 (CDK14); Compound Concentration 1000 nM; read-out: Percent Control.
From the text: as §1

The next assay has as its target T13, PLK1 (Homo sapiens, UniProt P53350).
T13 construct: purchased Eurofins DiscoverX KINOMEscan
In words: DiscoverX KINOMEscan binding assay at 1 μM, PLK1. As to conditions: Compound Concentration 1000 nM, read-out: Percent Control.
From the text: as §1

A further assay deals with T14, RAF1 (Homo sapiens, UniProt P04049).
T14 construct: purchased Eurofins DiscoverX KINOMEscan
In words: DiscoverX KINOMEscan binding assay at 1 μM, RAF1. As to conditions: Compound Concentration 1000 nM, read-out: Percent Control.
From the text: as §1

Another assay has as its target T15, RET(V804M) (Homo sapiens, UniProt P07949, V804M).
T15 construct: purchased Eurofins DiscoverX KINOMEscan
In words: DiscoverX KINOMEscan binding assay at 1 μM, RET(V804M). The note with it: Compound Concentration 1000 nM, read-out: Percent Control.
From the text: as §1

A further assay deals with T16, TYRO3 (Homo sapiens, UniProt Q06418).
T16 construct: purchased Eurofins DiscoverX KINOMEscan
Put plainly: DiscoverX KINOMEscan binding assay at 1 μM, TYRO3. As to conditions: Compound Concentration 1000 nM, read-out: Percent Control.
From the text: as §1

The next assay deals with T17, VEGFR2 (Homo sapiens, UniProt P35968).
T17 construct: purchased Eurofins DiscoverX KINOMEscan
In words: DiscoverX KINOMEscan binding assay at 1 μM, VEGFR2. As to conditions: VEGFR2 (KDR); Compound Concentration 1000 nM; read-out: Percent Control.
From the text: as §1

In another assay the target is T18, VPS34 (Homo sapiens, UniProt Q8NEB9).
T18 construct: purchased Eurofins DiscoverX KINOMEscan
Put plainly: KINOMEscan at 1 μM, VPS34. Type of assay: binding. As to conditions: 1000 nM, read-out: Percent Control. The text has this:
(§2) Supplement cells-12-00287-s001.zip/File S2. KinomeScan data for the CAMKK2 probe and negative control.xlsx, sheet "SGC-CAMKK2-1N" | column: Percent Control

Another assay has as its target T19, ERK4 (Homo sapiens, UniProt P31152).
T19 construct: purchased Eurofins DiscoverX KINOMEscan
Put plainly: KINOMEscan at 1 μM, ERK4. Type of assay: binding. As to conditions: 1000 nM, read-out: Percent Control.
From the text: as §2

The next assay deals with T20, NEK4 (Homo sapiens, UniProt P51957).
T20 construct: purchased Eurofins DiscoverX KINOMEscan
In words: KINOMEscan at 1 μM, NEK4. Type of assay: binding. As to conditions: 1000 nM, read-out: Percent Control.
From the text: as §2

A further assay concerns the target T21, YSK1 (Homo sapiens, UniProt O00506).
T21 construct: purchased Eurofins DiscoverX KINOMEscan
Put plainly: KINOMEscan at 1 μM, YSK1. The note with it: 1000 nM, read-out: Percent Control. Type of assay: binding.
From the text: as §2

A further assay has as its target T22, EPHB6 (Homo sapiens, UniProt O15197).
T22 construct: purchased Eurofins DiscoverX KINOMEscan
In words: KINOMEscan at 1 μM, EPHB6. Type of assay: binding. As to conditions: 1000 nM, read-out: Percent Control.
From the text: as §2

The next assay concerns the target T23, ERK5 (Homo sapiens, UniProt Q13164).
T23 construct: purchased Eurofins DiscoverX KINOMEscan
Put plainly: KINOMEscan at 1 μM, ERK5. Type of assay: binding. The note with it: 1000 nM, read-out: Percent Control.
From the text: as §2

A further assay concerns the target T24, WEE1 (Homo sapiens, UniProt P30291).
T24 construct: purchased Eurofins DiscoverX KINOMEscan
In words: KINOMEscan at 1 μM, WEE1. Type of assay: binding. The note with it: 1000 nM, read-out: Percent Control.
From the text: as §2

The next assay has as its target T25, IKK-beta (Homo sapiens, UniProt O14920).
T25 construct: purchased Eurofins DiscoverX KINOMEscan
Put plainly: KINOMEscan at 1 μM, IKK-beta. The note with it: 1000 nM, read-out: Percent Control. Type of assay: binding.
From the text: as §2

The target of assay [2] is T4, FLT3(D835H). Put plainly: KINOMEscan at 1 μM, FLT3(D835H). Type of assay: binding. The note with it: 1000 nM, read-out: Percent Control.
From the text: as §2

In another assay the target is T26, PHKG1 (Homo sapiens, UniProt Q16816).
T26 construct: purchased Eurofins DiscoverX KINOMEscan
Put plainly: KINOMEscan at 1 μM, PHKG1. Type of assay: binding. As to conditions: 1000 nM, read-out: Percent Control.
From the text: as §2

The next assay addresses T27, ADCK4 (Homo sapiens, UniProt Q96D53).
T27 construct: purchased Eurofins DiscoverX KINOMEscan
Put plainly: KINOMEscan at 1 μM, ADCK4. Type of assay: binding. The note with it: 1000 nM, read-out: Percent Control.
From the text: as §2

In a further assay the target is T28, DCAMKL3 (Homo sapiens, UniProt Q9C098).
T28 construct: purchased Eurofins DiscoverX KINOMEscan
Put plainly: KINOMEscan at 1 μM, DCAMKL3. Type of assay: binding. The note with it: 1000 nM, read-out: Percent Control.
From the text: as §2

The next assay has as its target T29, EGFR (Homo sapiens, UniProt P00533).
T29 construct: purchased Eurofins DiscoverX KINOMEscan
In words: KINOMEscan at 1 μM, EGFR. Type of assay: binding. The note with it: 1000 nM, read-out: Percent Control.
From the text: as §2

In a further assay the target is T30, HPK1 (Homo sapiens, UniProt Q92918).
T30 construct: purchased Eurofins DiscoverX KINOMEscan
In words: KINOMEscan binding assay at 1 μM, HPK1. As to conditions: Compound Concentration 1000 nM; read-out: Percent Control.
From the text: as §2

In another assay the target is T31, MST3 (Homo sapiens, UniProt Q9Y6E0).
T31 construct: purchased Eurofins DiscoverX KINOMEscan
In words: KINOMEscan binding assay at 1 μM, MST3. As to conditions: Compound Concentration 1000 nM; read-out: Percent Control.
From the text: as §2

In another assay the target is T32, PIK3CD (Homo sapiens, UniProt O00329).
T32 construct: purchased Eurofins DiscoverX KINOMEscan
In words: KINOMEscan binding assay at 1 μM, PIK3CD. As to conditions: Compound Concentration 1000 nM; read-out: Percent Control.
From the text: as §2

The target of the next assay is T33, PIP5K1C (Homo sapiens, UniProt O60331).
T33 construct: purchased Eurofins DiscoverX KINOMEscan
Put plainly: KINOMEscan binding assay at 1 μM, PIP5K1C. The note with it: Compound Concentration 1000 nM; read-out: Percent Control.
From the text: as §2

Another assay addresses T34, PLK4 (Homo sapiens, UniProt O00444).
T34 construct: purchased Eurofins DiscoverX KINOMEscan
In words: KINOMEscan binding assay at 1 μM, PLK4. As to conditions: Compound Concentration 1000 nM; read-out: Percent Control.
From the text: as §2

T10 sequence (P10721 26-976 D816V): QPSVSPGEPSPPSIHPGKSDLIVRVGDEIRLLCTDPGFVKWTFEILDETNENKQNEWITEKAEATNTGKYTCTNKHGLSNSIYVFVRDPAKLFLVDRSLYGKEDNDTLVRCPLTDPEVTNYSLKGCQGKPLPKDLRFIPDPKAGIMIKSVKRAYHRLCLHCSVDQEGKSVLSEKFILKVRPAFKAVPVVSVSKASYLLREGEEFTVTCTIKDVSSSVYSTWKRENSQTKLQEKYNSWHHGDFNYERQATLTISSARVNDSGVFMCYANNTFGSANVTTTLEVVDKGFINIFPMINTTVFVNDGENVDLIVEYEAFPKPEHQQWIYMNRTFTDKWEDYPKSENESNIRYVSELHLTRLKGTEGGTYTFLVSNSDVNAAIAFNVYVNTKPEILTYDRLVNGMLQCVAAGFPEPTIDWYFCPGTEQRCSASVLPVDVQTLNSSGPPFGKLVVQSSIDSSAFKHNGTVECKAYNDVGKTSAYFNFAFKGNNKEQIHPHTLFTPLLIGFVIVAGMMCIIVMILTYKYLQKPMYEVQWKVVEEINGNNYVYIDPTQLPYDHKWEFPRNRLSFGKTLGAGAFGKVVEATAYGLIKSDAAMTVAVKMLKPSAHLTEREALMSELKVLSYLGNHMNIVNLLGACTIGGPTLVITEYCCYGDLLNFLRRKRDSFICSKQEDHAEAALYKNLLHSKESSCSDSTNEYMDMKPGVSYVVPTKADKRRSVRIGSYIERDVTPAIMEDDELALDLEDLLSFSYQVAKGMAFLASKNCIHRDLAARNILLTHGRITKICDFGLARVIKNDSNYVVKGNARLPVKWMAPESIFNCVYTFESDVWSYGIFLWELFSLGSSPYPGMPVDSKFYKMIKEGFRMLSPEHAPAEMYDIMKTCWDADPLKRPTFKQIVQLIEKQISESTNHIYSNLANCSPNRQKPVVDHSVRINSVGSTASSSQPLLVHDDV
T21 sequence (O00506 whole entry): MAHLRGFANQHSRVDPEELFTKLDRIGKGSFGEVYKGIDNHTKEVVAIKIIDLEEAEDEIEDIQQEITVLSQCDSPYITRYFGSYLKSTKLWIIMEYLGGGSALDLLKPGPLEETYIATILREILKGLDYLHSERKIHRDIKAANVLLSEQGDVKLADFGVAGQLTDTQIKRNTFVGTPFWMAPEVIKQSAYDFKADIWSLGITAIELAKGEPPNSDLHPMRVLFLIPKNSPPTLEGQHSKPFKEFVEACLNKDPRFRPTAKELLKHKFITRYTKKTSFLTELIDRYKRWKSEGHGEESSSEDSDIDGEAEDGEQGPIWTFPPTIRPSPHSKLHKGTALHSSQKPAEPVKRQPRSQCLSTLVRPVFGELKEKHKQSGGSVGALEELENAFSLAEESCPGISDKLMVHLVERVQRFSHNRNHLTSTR
T28 sequence (Q9C098 whole entry): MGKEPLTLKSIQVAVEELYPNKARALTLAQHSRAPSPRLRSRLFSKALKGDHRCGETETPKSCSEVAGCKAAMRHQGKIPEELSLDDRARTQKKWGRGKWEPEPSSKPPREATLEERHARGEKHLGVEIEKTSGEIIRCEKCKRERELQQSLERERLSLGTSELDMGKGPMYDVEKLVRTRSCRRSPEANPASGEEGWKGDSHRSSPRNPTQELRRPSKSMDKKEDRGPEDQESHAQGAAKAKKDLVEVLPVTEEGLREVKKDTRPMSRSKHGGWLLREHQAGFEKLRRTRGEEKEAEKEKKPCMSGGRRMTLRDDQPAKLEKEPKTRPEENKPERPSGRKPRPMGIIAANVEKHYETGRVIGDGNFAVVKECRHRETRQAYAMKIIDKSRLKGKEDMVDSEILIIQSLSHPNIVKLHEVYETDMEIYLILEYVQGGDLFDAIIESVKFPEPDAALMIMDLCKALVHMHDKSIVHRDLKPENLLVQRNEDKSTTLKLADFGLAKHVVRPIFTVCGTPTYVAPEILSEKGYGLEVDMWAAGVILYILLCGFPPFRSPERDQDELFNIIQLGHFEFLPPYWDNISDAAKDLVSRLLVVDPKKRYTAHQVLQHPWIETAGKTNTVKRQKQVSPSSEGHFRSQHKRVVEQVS
T9 sequence (Q8TD08 whole entry): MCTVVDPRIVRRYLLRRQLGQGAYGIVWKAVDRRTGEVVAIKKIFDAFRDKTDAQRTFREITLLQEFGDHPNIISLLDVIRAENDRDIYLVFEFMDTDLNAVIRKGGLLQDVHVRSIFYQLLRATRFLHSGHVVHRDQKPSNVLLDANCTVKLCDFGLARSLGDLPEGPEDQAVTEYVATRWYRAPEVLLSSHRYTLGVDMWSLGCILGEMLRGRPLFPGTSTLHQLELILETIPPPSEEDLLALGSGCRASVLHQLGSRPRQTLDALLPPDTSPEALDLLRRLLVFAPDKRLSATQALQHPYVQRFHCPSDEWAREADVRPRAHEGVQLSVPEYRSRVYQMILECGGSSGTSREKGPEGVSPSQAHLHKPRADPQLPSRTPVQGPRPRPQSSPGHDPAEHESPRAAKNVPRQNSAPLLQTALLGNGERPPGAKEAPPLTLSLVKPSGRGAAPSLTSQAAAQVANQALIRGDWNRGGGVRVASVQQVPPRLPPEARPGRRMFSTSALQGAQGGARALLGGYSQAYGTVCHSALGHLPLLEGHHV
T14 sequence (P04049 whole entry): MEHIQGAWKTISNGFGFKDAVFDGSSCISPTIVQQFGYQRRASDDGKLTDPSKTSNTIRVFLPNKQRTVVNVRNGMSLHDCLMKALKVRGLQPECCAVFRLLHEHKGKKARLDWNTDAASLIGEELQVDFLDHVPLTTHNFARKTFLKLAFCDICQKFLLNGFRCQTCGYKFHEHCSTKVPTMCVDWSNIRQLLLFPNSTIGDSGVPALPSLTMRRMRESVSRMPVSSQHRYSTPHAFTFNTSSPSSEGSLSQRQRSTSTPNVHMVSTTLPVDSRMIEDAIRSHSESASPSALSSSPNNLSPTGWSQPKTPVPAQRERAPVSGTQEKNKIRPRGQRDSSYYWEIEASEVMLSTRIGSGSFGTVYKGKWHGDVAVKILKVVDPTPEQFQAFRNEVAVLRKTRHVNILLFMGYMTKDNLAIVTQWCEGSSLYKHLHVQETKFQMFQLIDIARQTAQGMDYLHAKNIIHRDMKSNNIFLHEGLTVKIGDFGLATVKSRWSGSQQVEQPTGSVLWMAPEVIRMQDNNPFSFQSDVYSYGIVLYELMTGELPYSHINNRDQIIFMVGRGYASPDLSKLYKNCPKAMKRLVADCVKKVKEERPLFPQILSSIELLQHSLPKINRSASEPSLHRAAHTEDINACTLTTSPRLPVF
T5 sequence (P08581 25-1390): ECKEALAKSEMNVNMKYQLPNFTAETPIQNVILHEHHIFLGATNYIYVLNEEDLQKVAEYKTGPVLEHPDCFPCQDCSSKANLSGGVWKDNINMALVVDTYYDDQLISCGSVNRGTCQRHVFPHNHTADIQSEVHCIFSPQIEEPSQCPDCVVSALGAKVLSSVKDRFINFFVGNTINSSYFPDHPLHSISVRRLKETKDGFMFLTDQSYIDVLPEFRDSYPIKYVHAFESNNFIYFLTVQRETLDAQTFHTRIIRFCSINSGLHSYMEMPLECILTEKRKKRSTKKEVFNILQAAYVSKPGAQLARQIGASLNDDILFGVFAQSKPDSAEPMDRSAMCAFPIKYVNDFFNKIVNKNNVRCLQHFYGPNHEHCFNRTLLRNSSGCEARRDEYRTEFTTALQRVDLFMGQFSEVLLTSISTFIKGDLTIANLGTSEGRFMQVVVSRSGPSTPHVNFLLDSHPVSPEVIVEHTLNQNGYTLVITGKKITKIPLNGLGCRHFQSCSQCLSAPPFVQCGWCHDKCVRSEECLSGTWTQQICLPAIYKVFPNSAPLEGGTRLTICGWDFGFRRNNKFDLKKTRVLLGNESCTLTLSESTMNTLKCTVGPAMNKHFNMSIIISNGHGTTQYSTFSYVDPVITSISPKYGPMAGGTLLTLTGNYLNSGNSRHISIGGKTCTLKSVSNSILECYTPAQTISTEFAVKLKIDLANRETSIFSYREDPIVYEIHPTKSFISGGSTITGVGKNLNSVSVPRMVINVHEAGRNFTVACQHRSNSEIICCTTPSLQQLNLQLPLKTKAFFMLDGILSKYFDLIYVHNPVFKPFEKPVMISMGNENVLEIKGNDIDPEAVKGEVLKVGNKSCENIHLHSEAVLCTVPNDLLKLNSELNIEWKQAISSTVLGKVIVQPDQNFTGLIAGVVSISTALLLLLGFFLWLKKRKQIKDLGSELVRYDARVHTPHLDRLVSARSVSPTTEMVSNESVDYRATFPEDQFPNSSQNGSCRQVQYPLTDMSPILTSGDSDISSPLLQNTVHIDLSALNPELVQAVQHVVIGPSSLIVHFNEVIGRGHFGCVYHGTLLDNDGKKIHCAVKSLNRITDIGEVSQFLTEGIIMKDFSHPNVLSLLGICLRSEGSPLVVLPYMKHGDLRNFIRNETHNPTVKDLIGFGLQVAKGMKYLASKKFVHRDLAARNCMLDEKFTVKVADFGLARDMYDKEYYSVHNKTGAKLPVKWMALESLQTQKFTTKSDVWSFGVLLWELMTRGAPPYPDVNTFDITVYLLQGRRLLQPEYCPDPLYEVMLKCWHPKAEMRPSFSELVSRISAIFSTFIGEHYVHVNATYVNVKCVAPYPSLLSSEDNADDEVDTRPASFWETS
T12 sequence (O94921 whole entry): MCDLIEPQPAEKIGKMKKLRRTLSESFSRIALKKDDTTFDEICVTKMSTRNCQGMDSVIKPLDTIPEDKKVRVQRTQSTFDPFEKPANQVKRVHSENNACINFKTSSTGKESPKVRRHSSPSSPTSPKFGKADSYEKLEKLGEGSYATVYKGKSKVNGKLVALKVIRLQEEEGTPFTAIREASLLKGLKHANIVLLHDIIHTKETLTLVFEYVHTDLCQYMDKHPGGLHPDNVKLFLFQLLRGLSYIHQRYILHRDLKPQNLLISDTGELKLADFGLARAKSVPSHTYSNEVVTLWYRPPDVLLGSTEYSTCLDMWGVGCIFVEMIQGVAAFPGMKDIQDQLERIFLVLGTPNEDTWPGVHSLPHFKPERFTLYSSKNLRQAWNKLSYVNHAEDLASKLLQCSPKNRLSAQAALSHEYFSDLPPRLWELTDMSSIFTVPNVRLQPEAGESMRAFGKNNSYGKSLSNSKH

On to `Cc1cccc(-c2cnc3occ(-c4ccc(C(=O)O)c(C5CCCC5)c4)c3c2)c1` [SGC-CAMKK2-1 (YL-36)], for which the remaining binding at 1 µM on CAMK1B was 64%; on ERK3 it was 81%; at p38-gamma, 82%; on FLT3(D835H) [1], 87%; at MET it was 92%; on CAMK1D it was 94%. Besides, the remaining binding at 1 µM at ASK2 turned out to be 96%; at ALK(C1156Y) it was 100%; on ERK8 it was 100%; at KIT(D816V) it was 100%; at NEK9 it was 100%; at PFTK1, 100%. Moreover, the remaining binding at 1 µM at PLK1, on RAF1, at RET(V804M), at TYRO3 and on VEGFR2 was 100% in each case.
As for `O=C(O)c1ccc(-c2coc3ncc(-c4ccccc4)cc23)cc1Cl` [SGC-CAMKK2-1N (UNC-YL-83)], the remaining binding at 1 µM at VPS34 was found to be 44%; on ERK4, 58%; on NEK4, 66%; on YSK1, 66%; at EPHB6, 75%; at ERK5, 81%. Further, the remaining binding at 1 µM on WEE1 was 84%; on IKK-beta, 87%; at FLT3(D835H) [2], 88%; at PHKG1, 93%; on ADCK4 it was 100%; at DCAMKL3 it was 100%. Moreover, the remaining binding at 1 µM at EGFR, at HPK1, on MST3, on PIK3CD, at PIP5K1C and at PLK4 was 100% in each case.
